{
  "source": "patent US6372493B1",
  "about": "“Hormone-secreting cells maintained in long-term culture” (Pacific Biomedical Research, Inc. [Cell Mart, Inc.], priority 1991, dated 2002)",
  "key": {"[1]": {"test_system": "Ovarian follicular cells, lines 100B-OR-5A, 100B5-OR-B, 100B5-OR-D", "assay": "8-Br-cAMP / FSH stimulation of progesterone secretion by cultured follicular cells", "type": "cell-based, human", "details": "1 mM 8-Br-cAMP, 24 hours", "method": "Cells in SC-2 were propagated and sub-cultured as above more than 20 times. […] Quantitative radioimmune assays (RIA) were employed as described in Radioassay Systems in Clinical Endocrinology, 1981, Ed. G. E. Abraham, {Basel: Marcel Dekker}, pp. 475-529. Progesterone, testosterone, estradiol, prolactin, thyroid stimulating hormone and luteinizing hormone were assayed by the Coat-a-Count procedure (Diagnostic Products Corp., Los Angeles).\nOvarian follicular cells, lines 100B-OR-5A, 100B5-OR-B, and 100B5-OR-D, were established in culture as described in Example 1 and maintained and sub-cultured as described in Example 2. From these lines were created sub-cultures designated 1, 2, and 3 respectively, which were employed in the stimulation protocol described below."}, "[2]": {"test_system": "Human pancreas cells at passage generation 47", "assay": "Effect of amino acids on glucose stimulated insulin secretion (Example 20)", "type": "cell-based", "details": "for insulin secretion, +20 mM arginine / insulin secretion, +10 mM alanine: 90 minutes", "method": "Human pancreas cells at passage generation 47, were prepared for the experiment as described in Example 17 above. The cells were incubated in 6 parts PDM plus 1 part DMSS medium at a concentration of 10^5 cells/ml, at various concentrations of glucose. Alanine (10 mM) or arginine(20 mM) were added, and the cells were incubated for 90 minutes, at which time samples were collected for assay of insulin content."}, "human follicular cells": {"test_system": "human follicular cells", "assay": "Long-term hormone secretion of follicular sub-cultures with added testosterone substrate (Example 2)", "type": "cell-based", "design": "dose or concentration left out as unconfirmed", "details": "testosterone added as substrate for steroid production", "method": "Cells in SC-2 were propagated and sub-cultured as above more than 20 times. […] Quantitative radioimmune assays (RIA) were employed as described in Radioassay Systems in Clinical Endocrinology, 1981, Ed. G. E. Abraham, {Basel: Marcel Dekker}, pp. 475-529. Progesterone, testosterone, estradiol, prolactin, thyroid stimulating hormone and luteinizing hormone were assayed by the Coat-a-Count procedure (Diagnostic Products Corp., Los Angeles). Follicle-stimulating hormone and B-hCG were assayed by the SERONO MATAclone procedure (Serono, Italy).\nConclusions: Using this method, human follicular cells were propagated in culture and transferred to serial subcultures which continued to proliferate and to secrete hormones."}},
  "data": [
    {"smiles": "Nc1ncnc2c1nc(Br)n2[C@@H]1O[C@@H]2COP(=O)(O)O[C@H]2[C@H]1O", "note": "[8-Br-cAMP]", "values": [
      {"measurement": "Prog", "setting": "[1]; culture 1", "result": 24.5, "unit": "ng/10^6 cells"},
      {"measurement": "Prog", "setting": "[1]; culture 2", "result": 12.9, "unit": "ng/10^6 cells"},
      {"measurement": "Prog", "setting": "[1]; culture 3", "result": 20.8, "unit": "ng/10^6 cells"}
    ]},
    {"smiles": "N=C(N)NCCC[C@H](N)C(=O)O", "note": "[arginine]", "values": [
      {"measurement": "insulin secretion, +20 mM arginine", "setting": "[2]; total 1 mM glucose", "result": 128},
      {"measurement": "insulin secretion, +20 mM arginine", "setting": "[2]; total 2 mM glucose", "result": 134},
      {"measurement": "insulin secretion, +20 mM arginine", "setting": "[2]; total 6 mM glucose", "result": 105},
      {"measurement": "insulin secretion, +20 mM arginine", "setting": "[2]; total 11 mM glucose", "result": 93},
      {"measurement": "insulin secretion, +20 mM arginine", "setting": "[2]; total 16 mM glucose", "result": 99},
      {"measurement": "insulin secretion, +20 mM arginine", "setting": "[2]; total 22 mM glucose", "result": 94}
    ]},
    {"smiles": "C[C@H](N)C(=O)O", "note": "[alanine, Alanine]", "values": [
      {"measurement": "increase of insulin secretion over that stimulated by glucose alone", "setting": "[2]; 10 mM alanine at 2 mM glucose", "result": 1.25, "unit": "fold"},
      {"measurement": "insulin secretion stimulated over the intermediate level of secretion", "setting": "[2]; 10 mM alanine together with 1 mM glucose, 1.5 hours", "result": "approximately 1.13 fold"},
      {"measurement": "insulin secretion, +10 mM alanine", "setting": "[2]; total 1 mM glucose", "result": 103},
      {"measurement": "insulin secretion, +10 mM alanine", "setting": "[2]; total 2 mM glucose", "result": 135},
      {"measurement": "insulin secretion, +10 mM alanine", "setting": "[2]; total 6 mM glucose", "result": 127},
      {"measurement": "insulin secretion, +10 mM alanine", "setting": "[2]; total 11 mM glucose", "result": 117},
      {"measurement": "insulin secretion, +10 mM alanine", "setting": "[2]; total 16 mM glucose", "result": 101},
      {"measurement": "insulin secretion, +10 mM alanine", "setting": "[2]; total 22 mM glucose", "result": 87}
    ]},
    {"smiles": "C[C@]12CC[C@H]3[C@@H](CCC4=CC(=O)CC[C@@]43C)[C@@H]1CC[C@@H]2O", "note": "[testosterone]", "values": [
      {"measurement": "time subcultures continued to secrete hormones after first placed in culture", "setting": "human follicular cells", "result": "≤ 16", "unit": "months"}
    ]}
  ]
}
